From a melting point compilation (Tetko et al.; mined from patent text by program, amines drawn as free bases though some values may be those of a salt)

Compound | melting point [°C]
CC1(C)CC(=O)c2c(SCCO)sc(-c3ccccn3)c2C1 | 175 to 177
O=C1C(=O)c2ccccc2C2=C1SCC1(CCN(CCCc3ccccc3)CC1)O2 | 112 to 114
CCN(CC)CCC(=O)O | 65 to 67
CC12CCC(C1)C1(C)Oc3ccc(C(O)COc4ccc(C(=O)O)cc4)cc3C21C (configuration not stated) | 123
COCCc1cccc2oc(C(=O)O)c(C)c12 | 138 to 140
CN1C(=O)CC[C@]2(C)c3ccc(CC(=O)Nc4ccccc4)cc3CC[C@@H]12 | 192 to 195
CCCC(SCC(N)=O)c1ccc2c(c1)OCO2 (configuration not stated) | 91 to 92
Cc1ccc2c(c1)N(CC(=O)c1cccs1)C(=O)C(NC(=O)Nc1cccc(C(=O)O)c1)CN2C(=O)c1cccs1 (configuration not stated) | > 290
Cc1cccc(C)c1-c1cc(Cl)cc2c1OC(CN1CCCCC1)C2 (configuration not stated) | > 235
Cc1nccn1-c1cccc(Nc2ccc(I)cc2[N+](=O)[O-])c1 | 135 to 136
CCOC(=O)c1cn(-c2ccc(Cl)cc2)c(-c2ccc(Cl)cc2Cl)n1 | 143 to 144
CCOC(=O)c1cnc2ccc(OC)nc2c1Cl | 98 to 100
CC(=O)Nc1ccc(-c2ccc(NC(C)=O)cc2I)c(I)c1 | 300 to 301
Cc1nnc(-c2ccc3occ(-c4ccc(C(N)=O)cc4)c3c2)o1 | 250 to 251
Cc1ccccc1-n1c(-c2sc(Nc3ccc(Cl)cc3)nc2C)nc2ccccc2c1=O | > 275
CCCCc1nc(CO)c(Cl)n1Cc1ccccc1 | 78 to 80
CS(=O)(=O)Cc1cccc(C(F)(F)F)c1[N+](=O)[O-] | 110 to 113
O=C(O)CS(=O)CCCCCn1nc(-c2ccccc2)c(-c2ccccc2)c1-c1ccccc1 (configuration not stated) | 129 to 130
Fc1cccc(OC2CN(C3CCC(c4c[nH]c5cc(F)ccc45)CC3)C2)c1 (configuration not stated) | 117 to 123
CNC(=O)CC1CN=C(c2cc3cc(Oc4ccc(S(C)(=O)=O)nc4)c(F)c(OCCOC)c3[nH]2)S1 (configuration not stated) | 151 to 152
CC(C)(C)NCC(O)c1cc(F)cc(C#N)c1F (configuration not stated) | 99 to 101
Cc1ccc(-c2cc(F)c(F)cc2-c2ccc(S(N)(=O)=O)cc2)cc1 | 103 to 104
CC(=O)c1ccc(NS(C)(=O)=O)c(Br)c1 | 124 to 126
CC1(C)C2CC3=C(CCC(=O)O3)C1C2 (configuration not stated) | 60
OCCOc1cccc(OCc2ccccc2)c1 | 40.5 to 43.5
CC(=O)Nc1cccc2c1C(=O)c1c-2n[nH]c1-c1ccc(N2CCOCC2)cc1 | > 300

Compound | melting point [°C]
NS(=O)(=O)c1ccc(S[C@H]2CC[C@H](O)CC2)s1 | 145 to 147
O=C(O)Cc1cc([N+](=O)[O-])ccc1Sc1ccccc1 | 138 to 140
CN(C)C(=O)c1cnn2ccccc12 | 86 to 87
N#CCCN1C(=O)C(O)(c2cccc(Cl)c2)c2ccccc21 (configuration not stated) | 149 to 150
CCOc1cc2c(cc1OC(C)=O)OCS2 | 131
CCOC(=O)C(=CNc1coc2cc(OC)ccc2c1=O)C(=O)OCC | 139 to 141
O=C(O)c1ccc(CO)cc1O | 179 to 180
CC(C)[C@H](NC(=O)OCc1ccccc1)C(=O)NNS(=O)(=O)c1ccccc1 | 253 to 255
COC(=O)c1cccc(C2CCCS2)c1N (configuration not stated) | 75 to 79
CC(C)(C)OC(=O)NC1CCc2cccc(-c3ccccc3)c2CC1=O (configuration not stated) | 173 to 174
O=C(O)Cc1ccc2ccn(Cc3ccccc3)c2c1 | 109 to 111
C=CCn1c(=O)c(C(=O)OCC)c(N2CCN(C(=O)c3cccs3)CC2)c2cccnc21 | 89 to 96
Cc1cccc(C(=O)O)c1Cl | 141 to 142
CS(=O)(=O)Nc1cccc(Nc2nc(OC3CCCC3)c3nc[nH]c3n2)c1 | 137 to 140
CCCCC(NC(=O)C1CC1(C)C)C(=O)OC(C)(C)C (racemic) | 52 to 65
COc1ccc(/C(=C/C=C/C(=O)Oc2ccc([N+](=O)[O-])cc2)C(C)C)cc1 | 95 to 96.5
COCc1ccc2c(c1S(=O)(=O)NC(=O)Nc1nc(C)cc(OC)n1)S(=O)(=O)C(C)C2 (configuration not stated) | 215 to 216
N#Cc1cnc2cc(Br)ccc2c1Nc1ccc(Cl)cc1Cl | 180 to 183
O=c1[nH]c(=S)[nH]c(-c2ccccc2)c1Cc1c(O)ccc2ccccc12 | 253 to 255
OCc1cc2c(F)cccc2nc1Cl | 176
CCc1ccc(NC(=N)c2ccc(SC)cc2)cc1 | 156 to 158
O=[N+]([O-])c1cccnc1Oc1nn(Cc2ccccc2F)c2ncccc12 | 115 to 117
Cc1noc(-c2ncn3c2CN(C)C(=O)c2ccccc2-3)n1 | 257 to 260
COC(=O)C1=C(C)NC(C)=C(C(=O)OCCN2CCN(c3cccc(Cl)c3Cl)CC2)C1c1cccc([N+](=O)[O-])c1 (configuration not stated) | 189 to 190
CN(C)c1ccc(-n2ccn(C3CCc4ccccc4C3)c2=S)nn1 (configuration not stated) | 198 to 199
CSC(SC)=C(C#N)C(=O)c1cc(C)ccc1C | 74.5 to 75.5

Compound | melting point [°C]
Cc1ccccc1C(F)(F)C(F)(F)c1ccccc1C | 71.5 to 73.5
Cc1c(N)c2c(c3c1C(c1ccc(C(C)C)cc1)CO3)CCC2 (configuration not stated) | 112 to 113
COC(=O)N1CCCC2CN(c3ccc(N4CC(CNC(C)=O)OC4=O)cc3F)CC21 (configuration not stated) | 83 to 85
O=C(Nc1nccs1)c1nc(-c2ccc([N+](=O)[O-])cc2)[nH]c1-c1ccc(CCl)cc1 | > 280
O=C(NCCO)/C(=C/c1ccc(OC(F)F)cc1)NC(=O)c1ccc(OCCc2ccc(Cl)cc2)cc1 | 160 to 162
COc1cc(OC)c2c(=O)cc(S)oc2c1C1CCN(C)CC1O (configuration not stated) | 184 to 185
Cc1cc(C)n(-c2nc(Nc3cc(C(F)(F)F)cc(C(F)(F)F)c3)c3ccccc3n2)n1 | 169 to 172
CNc1nc(C(C)c2ccc(-c3ccccc3)c(F)c2)cs1 (configuration not stated) | 144 to 145
CC1(C)Oc2ccc(C#N)cc2C(n2nc(-c3c(-c4ccccc4)nn4ccccc34)ccc2=O)C1O (configuration not stated) | 209 to 210
O=C(c1ccccc1O)N1CCc2cc(S(=O)(=O)N3CC(c4ccccc4)NC3=O)ccc21 (configuration not stated) | 221
CCCCNC(=O)N(C)c1cccc(-c2ccc(C=C(OC)C(=O)OC)cc2)c1 | 89
N=C(Nc1ccc(F)c(NC(=O)/C=C/c2ccccc2Cl)c1)c1ccccc1 | 189 to 191
COc1cccc2nc(-c3ccc4c(c3)NC(=O)C4(C)C)[nH]c12 | 222 to 225
Cc1nc2ncnn2c(O)c1Br | 269
O=c1[nH]nc(-c2c(Cl)ccc3cc(Cl)cnc23)o1 | 87
CCCOc1ccccc1-c1nc2nc(NCCCS(C)=O)ncc2c(=O)[nH]1 (configuration not stated) | 188 to 189
Cc1ccnc2c(O)cccc12 | 135 to 136
CC(C)CC(CS)C(=O)Nc1cccc(C(=O)O)c1 (configuration not stated) | > 200
CCc1nc2c(N)nc3ccccc3c2n1CCCSC | 210 to 212
CN(C)CCCOc1cccc(CC(=O)c2cccc(OCCCN(C)C)c2)c1 | 102 to 105
CSc1nc(Cl)c(-c2ccc(C)cc2)c(NS(=O)(=O)c2ccc(C(C)(C)C)cc2)n1 | 178 to 182
CNC(=O)C(NC(=O)C(CC(C)C)C(CC(=O)OC)SC(C)=O)C(C)OCc1ccccc1 (configuration not stated) | 105 to 106
COC(=O)CN1Cc2cc(C(=O)c3cccnc3)ccc2N=C1SC | 114
COc1ccc(CNC(=O)c2ccccc2)cc1OC | 101 to 102
CCOCCOC(=O)C(=O)Nc1nc(-c2c(C)cc(C)cc2C)cs1 | 124 to 125
CCn1cc(CN(C(=O)C2CCCc3ccc(C)cc32)c2ccc(C(C)C)cc2)cn1 (configuration not stated) | 110 to 112

Compound | melting point [°C]
COC(=O)c1cc(OCc2ccc3ccccc3n2)n(C(C)C)n1 | 106 to 107
COc1ccc(-c2sc3c(c2C)c(=O)c(CO)cn3Cc2ccccc2OC)cc1 | 153 to 156
CCOC(=O)Cc1nc(-c2ccc(Cl)cc2)oc1-c1cccs1 | 119 to 120
Cc1ccc(C(C)(C)C)cc1P(=O)(O)c1cc(C(C)(C)C)ccc1C | 182 to 183
COCc1cccc2oc(C(=O)Nc3ccc(-c4ccc(S(=O)(=O)NC(C(=O)O)C(C)C)cc4)cc3)c(C)c12 (configuration not stated) | 227 to 230
CCCCCCS(=O)(=O)c1nn2c(=O)cc(-c3ccccc3)nc2s1 | 131 to 134
Cc1oc(-c2ccccc2)nc1COc1cccc(COc2ccccc2CC(=O)O)c1 | 117 to 118
COc1cccc(Oc2cccc(-c3cccc(C(=O)NCCC#N)c3)n2)c1 | 85 to 86
CSc1nnc(C2CCCCC2)c(=O)n1C | 84 to 88
CC(=O)N(C)C1CCC(=O)c2ccccc21 (configuration not stated) | 101 to 103
CN1CCC(O)(C#N)CC1 | 130 to 133
Cc1cccc2c(=O)n3c(nc12)C(=O)c1ccccc1-3 | 247 to 248
COC(=O)c1ccc2c(c1)N(C(C)C)C(=O)C(C)(C)O2 | 75 to 77
Cc1nnc2nc(-c3cccc(C(F)(F)F)c3)ccn12 | 232 to 234
COC(=O)c1cccc(CC#N)c1[N+](=O)[O-] | 77 to 80
Cc1ccccc1NC(=O)c1ccccc1[Si](C)(C)C | 117 to 119
COc1ccc(-n2c(CC(=O)O)c(C(=O)O)c3cc(Oc4cc(C(F)(F)F)cc(C(F)(F)F)c4)ccc32)cc1 | 232
CCCNc1ncnc2c1ncn2CCCN1CCN(c2ccccc2)CC1 | 67 to 68
N#Cc1ccc(Oc2ccccc2)cc1C#N | 98 to 100
Oc1ccc2c(c1)CCCC(c1ccccc1)=C2c1ccc(OCCCCCSCCCC(F)(F)F)cc1 | 168
COc1cc(-c2ccc(C(C)(C)C)s2)cc2oc(=O)c(C)c(C)c12 | 137
Cn1cccc1-c1nsc2ccc(-n3c(=O)cc(C(F)(F)F)[nH]c3=O)cc12 | 125 to 130
COC(=O)/C=C/c1c(SC(F)(F)F)c(C#N)nn1-c1c(Cl)cc(C(F)(F)F)cc1Cl | 90
COCC(=O)NNC(=O)N1Cc2ccccc2Oc2ccc(Cl)cc21 | 167 to 169
